Measurements from ChEMBL document CHEMBL4007424, “Design and Synthesis of Enantiomerically Pure Decahydroquinoxalines as Potent and Selective κ-Opioid Receptor Agonists with Anti-Inflammatory Activity in Vivo” (J Med Chem, 2017).

Experiments:
Mus musculus [1] = test: Antiinflammatory activity in arachidonic acid-induced ear dermatitis ICR mouse model assessed as reduction in ear swelling at 3 mg administered twice tropically 30 mins prior and 15 mins after arachidonic acid addition measured 60 mins post arachidonic acid challenge relative to control; assay type: functional
Mus musculus [2] = test: Antiinflammatory activity in arachidonic acid-induced ear dermatitis ICR mouse model assessed as reduction in ear swelling at 1 mg administered twice tropically 30 mins prior and 15 mins after arachidonic acid addition measured 60 mins post arachidonic acid challenge relative to control; assay type: functional
[3] = target: Kappa-type opioid receptor (Cavia porcellus, UniProt P41144); test: Displacement of [3H]U-69,593 from kappa-type opioid receptor in guinea pig brain membranes after 120 mins by solid scintillation counting; assay type: cell membranes, Membrane
Kappa-type opioid receptor (Cavia porcellus, UniProt P41144), sequence (P41144 whole entry): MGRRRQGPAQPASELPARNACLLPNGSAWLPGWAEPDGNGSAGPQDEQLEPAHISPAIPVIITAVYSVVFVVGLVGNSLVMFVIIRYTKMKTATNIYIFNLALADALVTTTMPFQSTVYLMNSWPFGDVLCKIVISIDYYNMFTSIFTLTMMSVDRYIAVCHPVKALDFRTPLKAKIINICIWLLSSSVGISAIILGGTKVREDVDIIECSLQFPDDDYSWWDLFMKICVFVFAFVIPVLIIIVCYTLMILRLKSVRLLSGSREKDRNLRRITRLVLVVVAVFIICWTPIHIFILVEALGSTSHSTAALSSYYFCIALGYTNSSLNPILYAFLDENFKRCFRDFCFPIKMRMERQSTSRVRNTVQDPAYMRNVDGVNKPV

[4] = Displacement of [3H]DPDPE from delta-type opioid receptor in guinea pig brain membranes after 120 mins by solid scintillation counting; assay type: cell membranes, Cavia porcellus, Membrane
Mus musculus [5] = test: Antiinflammatory activity in arachidonic acid-induced ear dermatitis ICR mouse model assessed as reduction in ear swelling at 0.3 mg administered twice tropically 30 mins prior and 15 mins after arachidonic acid addition measured 60 mins post arachidonic acid challenge relative to control; assay type: functional
Mus musculus [6] = test: Antiinflammatory activity in arachidonic acid-induced ear dermatitis ICR mouse model assessed as reduction in ear swelling at 0.1 mg administered twice tropically 30 mins prior and 15 mins after arachidonic acid addition measured 60 mins post arachidonic acid challenge relative to control; assay type: functional
[7] = target: T1, Kappa-type opioid receptor (Homo sapiens, UniProt P41145); test: Agonist activity at recombinant human kappa-type opioid receptor expressed in HEK293 cells after 30 mins by [35S]GTPgammaS binding assay; assay type: functional, cell-based
T1 sequence (P41145 whole entry): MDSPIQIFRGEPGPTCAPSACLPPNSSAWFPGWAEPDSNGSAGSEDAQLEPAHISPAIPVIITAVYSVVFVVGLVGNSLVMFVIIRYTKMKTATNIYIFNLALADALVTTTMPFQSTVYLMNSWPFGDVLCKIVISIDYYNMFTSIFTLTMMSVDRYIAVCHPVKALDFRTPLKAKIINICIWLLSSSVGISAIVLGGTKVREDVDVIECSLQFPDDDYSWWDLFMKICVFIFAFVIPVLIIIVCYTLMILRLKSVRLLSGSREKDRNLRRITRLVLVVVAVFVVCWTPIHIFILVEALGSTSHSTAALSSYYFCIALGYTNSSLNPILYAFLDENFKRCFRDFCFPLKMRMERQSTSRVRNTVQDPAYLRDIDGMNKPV

Mu-type opioid receptor = Mu-type opioid receptor (Cavia porcellus, UniProt P97266); test: Displacement of [3H]DAMGO from mu-type opioid receptor in guinea pig brain membranes after 120 mins by solid scintillation counting; assay type: cell membranes, Membrane
Mu-type opioid receptor, sequence (P97266 whole entry): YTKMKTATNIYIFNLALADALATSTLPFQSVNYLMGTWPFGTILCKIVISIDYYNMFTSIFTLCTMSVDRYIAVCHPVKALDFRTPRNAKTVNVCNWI

[8] = Plasma concentration in Wistar Han rat at 5 mg/kg, iv measured 0.25 hrs post compound administration; assay type: ADME, organism-based
[9] = Ratio of drug level in brain to plasma in Wistar Han rat at 5 mg/kg, iv after 1 hr; assay type: ADME, organism-based; details: read-out: BPR
Rattus norvegicus [10] = test: Toxicity in Wistar Han rat assessed as assessed as clinical signs changes at 5 mg/kg, iv after 1 hr; assay type: organism-based; details: in vivo
[11] = Drug level in Wistar Han rat brain at 5 mg/kg, iv measured 1 hr post compound administration; assay type: ADME, organism-based; details: read-out: Drug uptake
[12] = Plasma concentration in Wistar Han rat at 5 mg/kg, iv measured 1 hr post compound administration; assay type: ADME, organism-based
Sus scrofa = species: Sus scrofa; test: Displacement of [3H]-(+)-MK 801 from PCP binding site of NMDA receptor in pig brain cortex membranes at 10 uM after 120 mins by solid scintillation counting; assay type: cell membranes
Rattus norvegicus [13] = species: Rattus norvegicus; test: Displacement of [3H]-DTG from sigma 2 receptor in rat liver membranes at 1 uM after 120 mins by scintillation counting; assay type: cell membranes; details: Membrane
[14] = target: T1, Kappa-type opioid receptor; test: Agonist activity at recombinant human kappa-type opioid receptor expressed in HEK293 cells at 1 uM after 30 mins by [35S]GTPgammaS binding assay; assay type: functional, cell-based
[15] = target: Sigma non-opioid intracellular receptor 1 (Cavia porcellus) (UniProt Q60492); test: Displacement of [3H]-(+)-pentazocine from sigma1-type […] receptor in guinea pig cortex membranes at 1 uM after 120 mins by solid scintillation counting; assay type: cell membranes
Sigma non-opioid intracellular receptor 1 (Cavia porcellus), sequence (Q60492 whole entry): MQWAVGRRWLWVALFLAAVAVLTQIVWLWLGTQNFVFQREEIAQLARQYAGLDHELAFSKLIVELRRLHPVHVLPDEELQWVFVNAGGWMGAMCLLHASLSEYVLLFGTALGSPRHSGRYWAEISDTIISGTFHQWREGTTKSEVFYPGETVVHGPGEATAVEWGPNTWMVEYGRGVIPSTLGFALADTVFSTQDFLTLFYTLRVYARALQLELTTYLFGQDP

[16] = target: Mu-type opioid receptor (Cavia porcellus) (UniProt P97266); test: Displacement of [3H]DAMGO from mu-type opioid receptor in guinea pig brain membranes at 1 uM after 120 mins by solid scintillation counting; assay type: cell membranes; details: Membrane
Mu-type opioid receptor (Cavia porcellus), sequence (P97266 whole entry): as the sequence (P97266 whole entry) above

[17] = Lipophilicity, logD of the compound at pH 7.4 by LC/MS analysis; assay type: physicochemical; details: buffer

SMILES	Ki [3] [nM]	Ki [4] [nM]	EC50 [7] [nM]	concentration at 0.25 h [8] [ng/mL]	Kp at 1 h [9]	Activity (Rattus norvegicus [10])	concentration at 1 h [11] [ng/g]	concentration at 1 h [12] [ng/mL]	inhibition (Rattus norvegicus [13]) [%]	other results
CS(=O)(=O)N1CCN(C(=O)Cc2ccc(Cl)c(F)c2)[C@@H]2[C@@H](N3CC[C@H](O)C3)CCC[C@@H]21	2.1	394	8	–	–	–	–	–	–	inhibition (INH) (Mus musculus [1]): 71%; inhibition (INH) (Mus musculus [2]): 46%; inhibition (INH) (Mus musculus [5]): 43%; inhibition (INH) (Mus musculus [6]): 33%; Ki (Mu-type opioid receptor): 308 nM
COC(=O)N1CCN(C(=O)Cc2cccc(Cl)c2)[C@@H]2[C@@H](N3CC[C@H](O)C3)CCC[C@@H]21.Cl	–	–	–	1500	0.1	Non-Toxic	41.2	414	–	–
O=C(Cc1ccc(Cl)c(Cl)c1)N1CCN[C@H]2CCC[C@H](N3CCCC3)[C@H]21	–	–	–	–	–	–	–	–	0	inhibition (Sus scrofa): 0%
COC(=O)CN1CCN(C(=O)Cc2ccc(Cl)c(Cl)c2)[C@@H]2[C@@H](N3CCCC3)CCC[C@@H]21	–	–	–	–	–	–	–	–	0	Activity [14]: 111%; inhibition [15]: 0%; inhibition (Sus scrofa): 13%
COC(=O)N1CCN(C(=O)Cc2ccc(F)c(F)c2)[C@@H]2[C@@H](N3CC[C@H](O)C3)CCC[C@@H]21.Cl	–	–	–	1410	0.12	Non-Toxic	46.4	392	–	–
CS(=O)(=O)N1CCN(C(=O)Cc2ccc(Cl)c(Cl)c2)[C@@H]2[C@@H](N3CCCC3)CCC[C@@H]21 [listing 1 of 2 here]	–	–	–	–	–	–	–	–	5	Activity [14]: 106%; inhibition [15]: 0%; inhibition (Sus scrofa): 0%
CS(=O)(=O)N1CCN(C(=O)Cc2ccc(F)c(Cl)c2)[C@@H]2[C@@H](N3CC[C@H](O)C3)CCC[C@@H]21.Cl	–	–	–	1210	0.11	Non-Toxic	38.7	356	–	–
COC(=O)N1CCN(C(=O)Cc2ccc(Cl)c(F)c2)[C@@H]2[C@@H](N3CC[C@H](O)C3)CCC[C@@H]21.Cl	–	–	–	1350	0.12	Non-Toxic	66.2	546	–	–
CN(C)S(=O)(=O)N1CCN(C(=O)Cc2ccc(Cl)c(Cl)c2)[C@@H]2[C@@H](N3CCCC3)CCC[C@@H]21	–	–	–	–	–	–	–	–	0	Activity [14]: 105%; inhibition [15]: 0%
O=C(Cc1ccc(Cl)c(F)c1)N1CCN(S(=O)(=O)Cc2ccon2)[C@H]2CCC[C@H](N3CC[C@H](O)C3)[C@H]21	0.82	1380	1.4	–	–	–	–	–	7	Activity [14]: 105%; inhibition [15]: 0%; inhibition [16]: 6%; inhibition (Sus scrofa): 13%; logD [17]: 1.4
COC(=O)N1CCN(C(=O)Cc2cccc(Cl)c2)[C@@H]2[C@@H](N3CC[C@H](O)C3)CCC[C@@H]21	1.7	1120	15	–	–	–	–	–	–	inhibition (INH) (Mus musculus [1]): 55%; inhibition (INH) (Mus musculus [2]): 44%; inhibition (INH) (Mus musculus [5]): 12%; inhibition (INH) (Mus musculus [6]): -15%; Ki (Mu-type opioid receptor): 512 nM
COC(=O)N1CCN(C(=O)Cc2ccc(F)c(F)c2)[C@@H]2[C@@H](N3CC[C@H](O)C3)CCC[C@@H]21	1.2	623	11	–	–	–	–	–	–	inhibition (INH) (Mus musculus [1]): 64%; inhibition (INH) (Mus musculus [2]): -11%; inhibition (INH) (Mus musculus [5]): -20%; inhibition (INH) (Mus musculus [6]): 1%; logD [17]: 0.77
CS(=O)(=O)N1CCN(C(=O)Cc2ccc(Cl)c(Cl)c2)[C@@H]2[C@@H](N3CCCC3)CCC[C@@H]21 [listing 2 of 2 here]	0.31	1090	1.5	–	–	–	–	–	–	Ki (Mu-type opioid receptor): 91 nM
CS(=O)(=O)N1CCN(C(=O)Cc2ccc(Cl)c(F)c2)[C@@H]2[C@@H](N3CC[C@H](O)C3)CCC[C@@H]21.Cl	–	–	–	938	0.09	Non-Toxic	37.5	437	–	–
CS(=O)(=O)N1CCN(C(=O)Cc2ccc(F)c(Cl)c2)[C@@H]2[C@@H](N3CC[C@H](O)C3)CCC[C@@H]21	1.7	575	5.9	–	–	–	–	–	–	inhibition (INH) (Mus musculus [1]): 69%; inhibition (INH) (Mus musculus [2]): 56%; inhibition (INH) (Mus musculus [5]): 43%; inhibition (INH) (Mus musculus [6]): 22%
